Experiments:
[1] = molecular target: T1, recombinant human VCB (VHL protein with elongin C and elongin B) (Homo sapiens, UniProt P40337); experiment: Gel-based streptavidin shift assay (anti-VHL Western blot); type: binding; settings: 10 μM probe, 2 h incubation at room temperature
T1 construct: human VHL (UniPort entry P40337, residues 1 -213); 6xHis followed by TEV site (N, cleaved yes); made in house; host or cells: E. coli One Shot BL21(DE3)
Procedure: To assess the ability of VHL-SF1 to covalently modify VHL, we initially developed a streptavidin shift assay in which we exposed recombinant human VCB, a stable complex of VHL protein with elongin C and elongin B, to VHL-SF1-Biotin. VHL biotinylation could then be directly quantified by the apparent shift in molecular weight observed when the sample was mixed with streptavidin and analyzed by an anti-VHL Western blot (Figure S2).[20] Through this assay, we concluded that 10 μM VHL-SF1-Biotin modified 32% VHL following 2 h of incubation at room temperature, which was further confirmed to be concentration-dependent with respect to the probe (Figure S3).
Figure S2. (A) Structure of VHL-SF-1-Biotin. (B) Structure of VHL-SF-2-Biotin. (C - E) Gel-based streptavidin shift assay of VHL-SF1-Biotin, and VHL-SF2-Biotin. VCB protein was pre-treated with DMSO, VHL-SF1-Biotin (10 μM) or VHL-SF2-Biotin (10 μM) for 2 h at room temperature prior to addition of streptavidin (10 μM, 10 min) at room temperature, after which protein was resolved on SDS-PAGE and visualised by VHL western blotting. (F) Quantification of VHL levels from western blot.
Docking analysis with Molecular Operating Environment (MOE)
Molecular modelling studies were conducted using the software Molecular Operating Environment 2019.01. […]

physchem = settings: buffer
Procedure: Table S1. Sulfonyl fluoride warhead stability for VHL-SF1 and VHL-SF2 was determined in
(1 picture or pasted object on this page, not shown here)

[2] = molecular target: T2, VCB and FAM-conjugated HIF1α-derived peptide interaction (Homo sapiens, UniProt P40337); experiment: Competitive fluorescence polarization (FP) assay, VCB / FAM-conjugated HIF1α-derived peptide; type: binding; settings: concentrations up to 100 μM, 2 h pre-incubation with VCB
T2 construct: human VHL (UniPort entry P40337, residues 1 -213); 6xHis followed by TEV site (N, cleaved yes); made in house; host or cells: E. coli One Shot BL21(DE3)
Procedure: We next focused on developing a second generation covalent VHL binder with enhanced potency and occupancy.
Figure 2 (A) Structure of VHL-SF2. […] (E) Competition pull-down assay from live cells between VHL-SF2-Biotin and VHL-SF2. HEK293T cells were pretreated with DMSO or varying concentrations of VHL-SF2 for 2 h at 37 °C. The cells were lysed and treated with DMSO or VHL-SF2-Biotin (50 μM) for 2 h at room temperature. A pull-down with streptavidin beads was conducted, after which the protein was resolved on SDS/PAGE. VHL and loading control GAPDH levels were visualized by Western blotting.
Figure S3. (A) Gel-based VHL labelling of VHL-SF1-Biotin, and (B) VHL-SF2-Biotin. VCB protein was pre-treated with DMSO, VHL-SF1-Biotin or VHL-SF2-Biotin for 2 h at room temperature, after which protein was resolved on SDS -PAGE and visualised by Neutravidin […]
Figure S4. Dose-response of VHL-SF1 following a 2 h pre-incubation in the presence of VCB and FAM-conjugated HIF1α-derived peptide, assessed by fluorescence polarization. Data […]
Figure S5. (A) VCB was incubated with DMSO for 24 h and subjected to intact-protein LC-MS (VHL: 24784 Da). […]
Fluorescence polarization assay protocol […]
well plate and the plate was shaken for 1 min, before reading fluorescence polarization on a Perkin Elmer Envision 2101 plate reader (excitation 486 nm, emission 535 nm). […]

Row | Structure (SMILES) | VHL modified (VHL biotinylation, streptavidin shift) [1] | half-life (physchem; pH 6) | half-life (physchem; pH 7.5) | displacement of fluorophore-labeled HIF1α peptide [2]
1 | Cc1cc([C@H](C(=O)N2C[C@H](S(=O)(=O)F)C[C@H]2C(=O)N[C@@H](CC(=O)NCCOCCOCCOCCNC(=O)CCCC[C@H]2SC[C@@H]3NC(=O)N[C@@H]32)c2ccc(-c3scnc3C)cc2)C(C)C)on1 [VHL-SF2-Biotin, (3R,5S)-1-((R)-3-Methyl-2-(3-methylisoxazol-5-yl)butanoyl)-5-(((S)-1-(4-(4-methylthiazol-5-yl)phenyl)-3,17-dioxo-21-((3aS,4R,6aR)-2-oxohexahydro-1H-thieno[3,4-d]imidazole-4-yl)-7,10,13-trioxa-4,16-diazahenicosyl)carbamoyl)pyrrolidine-3-sulfonyl fluoride] | 44% |  |  | 
2 | CC(=O)N[C@H](C(=O)N1C[C@H](S(=O)(=O)F)C[C@H]1C(=O)NCc1ccc(-c2scnc2C)cc1)C(C)(C)C [VHL-SF1, (3R,5S)-1-((S)-2-Acetamido-3,3-dimethylbutanoyl)-5-((4-(4-methylthiazol-5-yl)benzyl)carbamoyl)-pyrrolidine-3-sulfonyl fluoride] |  | 15 h | 0.55 h | unable to displace

— publication PMC10982999, “Structure-Guided Design and Optimization of Covalent VHL-Targeted Sulfonyl Fluoride PROTACs” (Journal of Medicinal Chemistry, 2024)
